Source: US20140343049A1, “DIHYDROFURAN DERIVATIVES AS INSECTICIDAL COMPOUNDS” (SYNGENTA PARTICIPATIONS AG, priority 2011, published 2014)

Experiments:
Type in all cases: in vivo
[1] = tested on: Spodoptera littoralis (Egyptian cotton leafworm); assay: Spodoptera littoralis cotton leaf disc spray test; settings: foliar, 72 h, cotton leaf discs sprayed at 200 ppm, 5 L1 larvae, mortality, feeding behavior, growth regulation 3 days after treatment
Excerpt: Cotton leaf discs were placed on agar in a 24-well microtiter plate and sprayed with test solutions at an application rate of 200 ppm. After drying, the leaf discs were infested with 5 L1 larvae. The samples were checked for mortality, feeding behavior, and growth regulation 3 days after treatment (DAT).

[2] = tested on: Heliothis virescens (tobacco budworm); assay: Heliothis virescens egg test on artificial diet; settings: 96 h, 200 ppm (concentration in well 18 ppm), eggs 0-24 h old, 4 days, egg mortality, larval mortality, growth regulation
Method: Eggs (0-24 h old) were placed in 24-well microtiter plate on artificial diet and treated with test solutions at an application rate of 200 ppm (concentration in well 18 ppm) by pipetting. After an incubation period of 4 days, samples were checked for egg mortality, larval mortality, and growth regulation.

[3] = tested on: Tetranychus urticae (two-spotted spider mite); assay: Tetranychus urticae bean leaf disc spray test; settings: foliar, 192 h, bean leaf discs sprayed at 200 ppm, mixed ages, egg, larval and adult mortality 8 days later
Excerpt: Bean leaf discs on agar in 24-well microtiter plates were sprayed with test solutions at an application rate of 200 ppm. After drying, the leaf discs are infested with mite populations of mixed ages. 8 days later, discs are checked for egg mortality, larval mortality, and adult mortality. […]

[4] = tested on: Thrips tabaci (onion thrips); assay: Thrips tabaci sunflower leaf disc spray test; settings: foliar, 168 h, sunflower leaf discs sprayed at 200 ppm, mixed ages, mortality after 7 days
Method: Sunflower leaf discs were placed on agar in a 24-well microtiter plate and sprayed with test solutions at an application rate of 200 ppm. […] After drying, the leaf discs were infested with a thrip population of mixed ages. After an incubation period of 7 days, samples were checked for mortality.

[5] = tested on: Plutella xylostella (diamond back moth); assay: Plutella xylostella L2 larvae test on artificial diet; settings: 144 h, 200 ppm (concentration in well 18 ppm), 6 days, larval mortality and growth regulation
Method: 24-well microtiter plate (MTP) with artificial diet was treated with test solutions at an application rate of 200 ppm (concentration in well 18 ppm) by pipetting. After drying, the MTPs were infested with L2 larvae (7-12 per well). After an incubation period of 6 days, samples were checked for larval mortality and growth regulation.

[6] = tested on: Diabrotica balteata (corn root worm); assay: Diabrotica balteata L2 larvae test on artificial diet; settings: 120 h, 200 ppm (concentration in well 18 ppm), 5 days, larval mortality and growth regulation
Summary of the method: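 Artificial diet treated with test solution at 200 ppm or 12.5 ppm application rate (in-well concentration stated as 18 ppm), dried, then infested with 6-10 L2 larvae per well. Larval mortality and growth regulation scored after 5 days.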

[7] = tested on: Myzus persicae (green peach aphid); assay: Myzus persicae (sachet) mixed population test; settings: 120 h, sucrose solution, application rate 12.5 ppm, mortality 5 days after infestation
Excerpt: Test compounds were applied by pipette into 24 well plates and mixed with Sucrose solution. The plates were closed with a stretched Parafilm. A plastic stencil with 24 holes is placed onto the plate and infested pea seedlings were placed directly on the Parafilm. The infested plate is closed with a gel blotting paper and another plastic stencil and then turned upside down. 5 days after infestation the samples were checked on mortality. Application rate: 12.5 ppm.

CCNC(=O)c1ccc(C2=CC(c3cc(Cl)cc(Cl)c3)(C(F)(F)F)OC2)cc1C (stereo not shown) [Compound A4]
≥ 80%: pest or weed control at 200 ppm [1] | pest or weed control at 200 ppm [2] | pest or weed control at 200 ppm [3] | pest or weed control at 200 ppm [4] | pest or weed control at 200 ppm [5] | pest or weed control at 200 ppm [6]

Cc1cc(C2=CC(c3cc(Cl)cc(Cl)c3)(C(F)(F)F)OC2)ccc1C(=O)NCc1cn(C)cn1 (stereo not shown) [Compound A17]
≥ 80%: pest or weed control at 200 ppm [1] | pest or weed control at 200 ppm [2] | pest or weed control at 200 ppm [3] | pest or weed control at 200 ppm [4] | pest or weed control at 200 ppm [5] | pest or weed control at 200 ppm [6]

Cc1cc(C2=CC(c3cc(Cl)cc(Cl)c3)(C(F)(F)F)OC2)ccc1C(=O)NCCCBr (stereo not shown) [Compound A19]
≥ 80%: pest or weed control at 200 ppm [1] | pest or weed control at 200 ppm [2] | pest or weed control at 200 ppm [3] | pest or weed control at 200 ppm [4] | pest or weed control at 200 ppm [5] | pest or weed control at 200 ppm [6]

Cc1cc(C2=CC(c3cc(Cl)cc(Cl)c3)(C(F)(F)F)OC2)ccc1C(=O)NCCC(F)(F)F (stereo not shown) [Compound A20]
≥ 80%: pest or weed control at 200 ppm [1] | pest or weed control at 200 ppm [2] | pest or weed control at 200 ppm [3] | pest or weed control at 200 ppm [4] | pest or weed control at 200 ppm [5] | pest or weed control at 200 ppm [6]

Cc1cc(C2=CC(c3cc(Cl)cc(Cl)c3)(C(F)(F)F)OC2)ccc1C(=O)NCc1ccc(S(C)(=O)=O)cc1 (stereo not shown) [Compound A25]
≥ 80%: pest or weed control at 200 ppm [1] | pest or weed control at 200 ppm [2] | pest or weed control at 200 ppm [3] | pest or weed control at 12.5 ppm [7] | pest or weed control at 200 ppm [5] | pest or weed control at 200 ppm [6]

CCC(C)NC(=O)c1ccc(C2=CC(c3cc(Cl)cc(Cl)c3)(C(F)(F)F)OC2)cc1C (stereo not shown) [Compound A27]
≥ 80%: pest or weed control at 200 ppm [1] | pest or weed control at 200 ppm [2] | pest or weed control at 200 ppm [3] | pest or weed control at 200 ppm [4] | pest or weed control at 200 ppm [5] | pest or weed control at 200 ppm [6]

Cc1cc(C2=CC(c3cc(Cl)cc(Cl)c3)(C(F)(F)F)OC2)ccc1C(=O)NCC(F)F (stereo not shown) [Compound A29]
≥ 80%: pest or weed control at 200 ppm [1] | pest or weed control at 200 ppm [2] | pest or weed control at 200 ppm [3] | pest or weed control at 200 ppm [4] | pest or weed control at 200 ppm [5] | pest or weed control at 200 ppm [6]

Cc1cc(C2=CC(c3cc(Cl)cc(Cl)c3)(C(F)(F)F)OC2)ccc1C(=O)NC1C[S+]([O-])C1 (stereo not shown) [Compound A77]
≥ 80%: pest or weed control at 12.5 ppm [7] | pest or weed control at 200 ppm [4]

Cc1cc(C2=CC(c3cc(Cl)cc(Cl)c3)(C(F)(F)F)OC2)ccc1C(=O)NCCC1CS(=O)(=O)C1 (stereo not shown) [Compound A83]
≥ 80%: pest or weed control at 200 ppm [1] | pest or weed control at 200 ppm [2] | pest or weed control at 200 ppm [3] | pest or weed control at 12.5 ppm [7] | pest or weed control at 200 ppm [5] | pest or weed control at 200 ppm [6]

CO/N=C/NC(=O)c1ccc(C2=CC(c3cc(Cl)cc(Cl)c3)(C(F)(F)F)OC2)cc1C (stereo not shown) [Compound A86, (E)-4-[5-(3,5-Dichlorophenyl)-5-trifluoromethyl-2,5-dihydro-furan-3-yl]-N-[(methoxyimino)methyl]-2-methylbenzamide]
≥ 80%: pest or weed control at 200 ppm [1] | pest or weed control at 200 ppm [2] | pest or weed control at 200 ppm [3] | pest or weed control at 200 ppm [4] | pest or weed control at 200 ppm [5] | pest or weed control at 200 ppm [6]

Cc1nc(C2=CC(c3cc(Cl)cc(Cl)c3)(C(F)(F)F)OC2)ccc1C(=O)NC1(C)CSC1 (stereo not shown) [Compound C17]
≥ 80%: pest or weed control at 200 ppm [1] | pest or weed control at 200 ppm [3] | pest or weed control at 200 ppm [4] | pest or weed control at 200 ppm [5] | pest or weed control at 200 ppm [6]

Cc1nc(C2=CC(c3cc(Cl)cc(Cl)c3)(C(F)(F)F)OC2)ccc1C(=O)NC1CSC1 (stereo not shown) [Compound C19]
≥ 80%: pest or weed control at 200 ppm [1] | pest or weed control at 200 ppm [3] | pest or weed control at 200 ppm [4] | pest or weed control at 200 ppm [5] | pest or weed control at 200 ppm [6]

Cc1cc(C2=CC(c3cc(Cl)cc(Cl)c3)(C(F)(F)F)OC2)ccc1C(=O)NCCC(F)(F)F (stereo not shown) [Compound D6]
≥ 80%: pest or weed control at 12.5 ppm [7]

CCC(C)NC(=O)c1ccc(C2=CC(c3cc(Cl)cc(Cl)c3)(C(F)(F)F)OC2)cc1C (stereo not shown) [Compound D7]
≥ 80%: pest or weed control at 12.5 ppm [7]

Cc1cc(C2=CC(c3cc(Cl)cc(Cl)c3)(C(F)(F)F)OC2)ccc1C(=O)NC(C)c1ccccc1 (stereo not shown) [Compound D11]
≥ 80%: pest or weed control at 12.5 ppm [7] | pest or weed control at 200 ppm [4] | pest or weed control at 200 ppm [6]

COc1ccc(CNC(=O)c2ccc(C3=CC(c4cc(Cl)cc(Cl)c4)(C(F)(F)F)OC3)cc2C)cc1 (stereo not shown) [Compound D12]
≥ 80%: pest or weed control at 12.5 ppm [7] | pest or weed control at 200 ppm [4] | pest or weed control at 200 ppm [6]

Cc1cc(C2=CC(c3cc(Cl)cc(Cl)c3)(C(F)(F)F)OC2)ccc1C(=O)NCc1ccc(Cl)nc1 (stereo not shown) [Compound D13]
≥ 80%: pest or weed control at 12.5 ppm [7] | pest or weed control at 200 ppm [6]

Cc1cc(C2=CC(c3cc(Cl)cc(Cl)c3)(C(F)(F)F)OC2)ccc1C(=O)Nc1cccc(F)c1 (stereo not shown) [Compound D14]
≥ 80%: pest or weed control at 200 ppm [3] | pest or weed control at 12.5 ppm [7] | pest or weed control at 200 ppm [6]

Cc1cc(NC(=O)c2ccc(C3=CC(c4cc(Cl)cc(Cl)c4)(C(F)(F)F)OC3)cc2C)n(C)n1 (stereo not shown) [Compound D16]
≥ 80%: pest or weed control at 12.5 ppm [7] | pest or weed control at 200 ppm [4] | pest or weed control at 200 ppm [6]

Cc1csc(NC(=O)c2ccc(C3=CC(c4cc(Cl)cc(Cl)c4)(C(F)(F)F)OC3)cc2C)n1 (stereo not shown) [Compound D17]
≥ 80%: pest or weed control at 12.5 ppm [7] | pest or weed control at 200 ppm [6]

Cc1cc(C2=CC(c3cc(Cl)cc(Cl)c3)(C(F)(F)F)OC2)ccc1C(=O)NC1(C)CSC1 (stereo not shown) [Compound D18]
≥ 80%: pest or weed control at 12.5 ppm [7] | pest or weed control at 200 ppm [4] | pest or weed control at 200 ppm [6]

CSCC(C)(C)NC(=O)c1ccc(C2=CC(c3cc(Cl)cc(Cl)c3)(C(F)(F)F)OC2)cc1C (stereo not shown) [Compound D19]
≥ 80%: pest or weed control at 200 ppm [1] | pest or weed control at 200 ppm [2] | pest or weed control at 200 ppm [3] | pest or weed control at 12.5 ppm [7] | pest or weed control at 200 ppm [5] | pest or weed control at 200 ppm [6]

Cc1cc(C2=CC(c3cc(Cl)cc(Cl)c3)(C(F)(F)F)OC2)ccc1C(=O)NC1CCC1 (stereo not shown) [Compound D23]
≥ 80%: pest or weed control at 12.5 ppm [7] | pest or weed control at 200 ppm [4] | pest or weed control at 200 ppm [5] | pest or weed control at 200 ppm [6]
